Results taken from patent US20250188059A1, “NOVEL COMPOUND AND USE THEREOF FOR INHIBITING CHECKPOINT KINASE 2” (ARUM THERAPEUTICS INC, priority 2022, published 2025).
Read-outs that look alike come from different tables or passages of the source.

Key:
Chk2 kinase = Chk2 kinase (Homo sapiens (Human), UniProt O96017); assay: Chk2 kinase inhibitory activity (LanthaScreen TR-FRET); format: biochemical; conditions: graded
Description: The compounds of Examples 1 to 66 were diluted at various concentrations and transferred to a 384-well plate by 5 μl, and 10 μl of a mixed solution (2×) of Chk1 kinase (Thermo, P3040) or Chk2 kinase (Thermo, PV3367) and a substrate (Thermo, PV3508) was added to wells treated with the compounds. 5 μl of an ATP solution at a 4× concentration was added to the test well and reacted at room temperature for 1 hour. 20 μl of LanthaScreen Terbium-CREB p-Ser 133 antibody (Thermo, PV3542) was added to the reaction well and incubated at room temperature for 30 minutes. Conversion data was measured by an EnVision 2014 multi label reader (PerkinElmer). The activity for each concentration was determined by the ratio (FRET ratio=FR) of the value obtained by dividing the value at 520 nm by the value at 490 nm among the emission wavelength values for each wavelength (Em520/Em490). The results obtained for each concentration of the compounds were the average values obtained in two wells, and the IC50 values of the compounds were calculated using PRIZM software for analysis of the results. IC50 in Table 7 was graded as follows.

[1] = test system: human breast cancer cell line MCF-7; assay: Cancer cell growth inhibition test (CellTiter-Glo); format: cell-based; conditions: MCF-7, 72 hours
Description: The human breast cancer cell line MCF-7 was treated with trypsin and harvested. The number of cells was counted, and about 3000 cells/80 μl per well were inoculated into a 96 well plate (Corning) and then incubated in a 37° C. incubator for 24 hours. Thereafter, the example compounds were diluted in a culture solution at various concentrations, and each well was treated with 20 μl and stored in a cell culture incubator for 72 hours. In the case of the group administered in combination, the example compounds and cisplatin or doxorubicin were diluted in a culture solution at various concentrations, and each well was treated with 20 μl. After 72 hours, each well was treated with 30 μl of CellTiter-Glo solution (Promega), and the luminescence was read on a Victor3 multi label reader (PerkinElmer).
Relative viability (%)=(value of each test well/value of well treated with DMSO alone)×100
The results obtained for each concentration for each example compound were the average values obtained from three wells, and PRIZM software was used for analysis of the results.

[2] = Homo sapiens, MCF7, 72 h, graded, read-out: Celltiter glo analysis (IC50)
[3] = Homo sapiens, MCF7, 72 h, alone, read-out: Administered alone (IC50)

Sequence of Chk2 kinase (O96017 whole entry): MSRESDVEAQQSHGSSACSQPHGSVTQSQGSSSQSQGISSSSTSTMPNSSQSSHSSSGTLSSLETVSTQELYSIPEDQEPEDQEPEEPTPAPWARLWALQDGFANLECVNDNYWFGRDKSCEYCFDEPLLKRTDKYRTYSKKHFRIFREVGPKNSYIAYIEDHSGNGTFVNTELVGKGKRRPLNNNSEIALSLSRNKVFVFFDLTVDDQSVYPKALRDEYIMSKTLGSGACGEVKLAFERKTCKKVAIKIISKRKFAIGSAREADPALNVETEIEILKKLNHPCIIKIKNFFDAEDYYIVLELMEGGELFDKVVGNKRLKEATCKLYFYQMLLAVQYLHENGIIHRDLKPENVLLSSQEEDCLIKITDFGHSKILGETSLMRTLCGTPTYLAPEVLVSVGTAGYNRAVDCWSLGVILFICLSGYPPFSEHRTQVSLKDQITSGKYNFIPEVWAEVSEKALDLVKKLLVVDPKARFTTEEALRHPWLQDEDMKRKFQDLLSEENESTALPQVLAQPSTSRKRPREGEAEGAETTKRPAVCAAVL

Row | SMILES | IC50 (Chk2 kinase) [µM] | IC50 [1, 2] [µM] | also measured
1 | Nc1ncc(-c2cc(-c3cnn(CC(F)(F)F)c3)ccc2F)nc1C(=O)N[C@@H]1CNCC[C@H]1O [Example 10, 3-amino-6-(2-fluoro-5-(1-(2,2,2-trifluoroethyl)-1H-pyrazol-4-yl)phenyl)-N-((3R,4R)-4-hydroxypiperidin-3-yl) pyrazine-2-carboxamide] | 0.01 to 0.1 | 10 to 100 | 
2 | CC1(C)Cc2c(-c3cc(-c4cnc(N)c(C(=O)N[C@H]5CCC6(CC6)NC5)n4)ccn3)cnn2C1 [Example 50, (S)-3-amino-6-(2-(5,5-dimethyl-5,6-dihydro-4H-pyrrolo[1,2-b]pyrazol-3-yl)pyridin-4-yl)-N-(4-azaspiro[2.5]octan-6-yl)pyrazine-2-carboxamide] | ≤ 0.01 | 10 to 100 | 
3 | Nc1ncc(-c2cc(-c3cnn(CC(F)(F)F)c3)ccc2F)nc1C(=O)N[C@@H]1CNC[C@H]1O [Example 11, 3-amino-6-(2-fluoro-5-(1-(2,2,2-trifluoroethyl)-1H-pyrazol-4-yl)phenyl)-N-((3R,4R)-4-hydroxypyrrolidin-3-yl) pyrazine-2-carboxamide] | 0.01 to 0.1 | 10 to 100 | 
4 | Nc1ncc(-c2ccnc(-c3cnn(CC(F)(F)F)c3)c2)nc1C(=O)N[C@@H]1CNCC(F)(F)C1 [Example 13, (S)-3-amino-N-(5,5-difluoropiperidin-3-yl)-6-(2-(1-(2,2,2-trifluoroethyl)-1H-pyrazol-4-yl)pyridin-4-yl)pyrazine-2-carboxamide] | 0.1 to 1 | ≤ 10 | IC50 [1, 3]: 8.59 µM; IC50 ([1]; combination with cisplatin, read-out: Administered in combination with cisplatin (IC50)): 2.93 µM; IC50 ([1]; combination with doxorubicin, read-out: Administered in combination with doxorubicin (IC50)): 0.91 µM
5 | Nc1ncc(-c2cc(-c3cnn(CC(F)(F)F)c3)ncc2F)nc1C(=O)N[C@H]1CCCNC1 [Example 1, (S)-3-amino-6-(5-fluoro-2-(1-(2,2,2-trifluoroethyl)-1H-pyrazol-4-yl)pyridin-4-yl)-N-(piperidin-3-yl) pyrazine-2-carboxamide] | 0.01 to 0.1 | 10 to 100 | 
6 | Nc1ncc(-c2cc(-c3cnn(CC(F)(F)F)c3)ncc2F)nc1C(=O)N[C@@H]1CNCC[C@H]1O [Example 3, 3-amino-6-(5-fluoro-2-(1-(2,2,2-trifluoroethyl)-1H-pyrazol-4-yl)pyridin-4-yl)-N-((3R,4R)-4-hydroxypiperidin-3-yl)pyrazine-2-carboxamide] | ≤ 0.01 | 10 to 100 | 
7 | CC1(C)Cc2c(-c3cc(-c4cnc(N)c(C(=O)N[C@@H]5CNCC[C@H]5O)n4)ccn3)cnn2C1 [Example 53, 3-amino-6-(2-(5,5-dimethyl-5,6-dihydro-4H-pyrrolo[1,2-b]pyrazol-3-yl)pyridin-4-yl)-N-((3R,4R)-4-hydroxypiperidin-3-yl)pyrazine-2-carboxamide] | 0.01 to 0.1 | > 100 | 
8 | COc1cccc2c1C(=O)c1c(O)c3c(c(O)c1C2=O)C[C@@](O)(C(=O)CO)C[C@@H]3O[C@H]1C[C@H](N)[C@H](O)[C@H](C)O1 [doxorubicin, reference compound] |  |  | IC50 [1, 3]: 1.5 µM
9 | CC(C)(O)Cn1cc(-c2cc(-c3cnc(N)c(C(=O)N[C@@H]4CNC[C@@H](F)C4)n3)c(F)cn2)cn1 [Example 22, 3-amino-6-(5-fluoro-2-(1-(2-hydroxy-2-methylpropyl)-1H-pyrazol-4-yl)pyridin-4-yl)-N-((3S,5S)-5-fluoropiperidin-3-yl)pyrazine-2-carboxamide] | > 1 | 10 to 100 | 
10 | Nc1ncc(-c2cc(-c3cnn(CC(F)(F)F)c3)ccc2F)nc1C(=O)N[C@@H]1CNCC(F)(F)C1 [Example 12, (S)-3-amino-N-(5,5-difluoropiperidin-3-yl)-6-(2-fluoro-5-(1-(2,2,2-trifluoroethyl)-1H-pyrazol-4-yl)phenyl)pyrazine-2-carboxamide] | > 1 | ≤ 10 | 
11 | Nc1ncc(-c2cc(-c3cnn(CC(F)(F)F)c3)ccc2F)nc1C(=O)N[C@H]1CCC2(CC2)NC1 [Example 8, (S)-3-amino-6-(2-fluoro-5-(1-(2,2,2-trifluoroethyl)-1H-pyrazol-4-yl)phenyl)-N-(4-azaspiro[2.5]octan-6-yl)pyrazine-2-carboxamide] | 0.01 to 0.1 | 10 to 100 | 
12 | CC(C)(O)Cn1cc(-c2cc(-c3cnc(N)c(C(=O)N[C@H]4CCCNC4)n3)ccn2)cn1 [Example 5, (S)-3-amino-6-(2-(1-(2-hydroxy-2-methylpropyl)-1H-pyrazol-4-yl)pyridin-4-yl)-N-(piperidin-3-yl) pyrazine-2-carboxamide] | ≤ 0.01 | > 100 | 
13 | CC(C)(O)Cn1cc(-c2cc(-c3cnc(N)c(C(=O)NC4CNC[C@@H](F)C4)n3)ccn2)cn1 (stereo partly drawn) [Example 34, 3-amino-N-((3S,5S)-5-fluoropiperidin-3-yl)-6-(2-(1-(2-hydroxy-2-methylpropyl)-1H-pyrazol-4-yl)pyridin-4-yl)pyrazine-2-carboxamide] |  | 10 to 100 | 
14 | CC1(C)Cc2c(-c3ccc(F)c(-c4cnc(N)c(C(=O)N[C@@H]5CNCC[C@H]5O)n4)c3)cnn2C1 [Example 47, 3-amino-6-(5-(5,5-dimethyl-5,6-dihydro-4H-pyrrolo[1,2-b]pyrazol-3-yl)-2-fluorophenyl)-N-((3R,4R)-4-hydroxypiperidine-3-yl) pyrazine-2-carboxamide] | 0.01 to 0.1 | 10 to 100 | 
15 | CC1(C)Cc2c(-c3cc(-c4cnc(N)c(C(=O)N[C@H]5CCCNC5)n4)ccn3)cnn2C1 [Example 49, (S)-3-amino-6-(2-(5,5-dimethyl-5,6-dihydro-4H-pyrrolo[1,2-b]pyrazol-3-yl)pyridin-4-yl)-N-(piperidin-3-yl)pyrazine-2-carboxamide] | ≤ 0.01 | 10 to 100 | 
16 | N.N.[Cl][Pt][Cl] [cisplatin, reference compound] |  |  | IC50 ([1]; alone, read-out: Administered alone (IC50)): 26 µM

Continued, in another order:

Row | IC50 (Chk2 kinase) [µM] | IC50 [1, 2] [µM] | SMILES | also measured
17 | ≤ 0.01 | 10 to 100 | CC1(C)Cc2c(-c3cccc(-c4cnc(N)c(C(=O)N[C@@H]5CNCCC5(F)F)n4)c3)cnn2C1 [Example 58, 3-amino-N-(4,4-difluoropiperidin-3-y)-6-(3-(5,5-dimethyl-5,6-dihydro-4H-pyrrolo[1,2-b]pyrazol-3-yl)phenyl)pyrazine-2-carboxamide] | 
18 | ≤ 0.01 | 10 to 100 | CC1(C)Cc2c(-c3ccc(O)c(-c4cnc(N)c(C(=O)N[C@@H]5CNC[C@@H](F)C5)n4)c3)cnn2C1 [Example 55, 3-amino-6-(5-(5,5-dimethyl-5,6-dihydro-4H-pyrrolo[1,2-b]pyrazol-3-yl)-2-hydroxyphenyl)-N-((3S,5S)-5-fluoropiperidin-3-yl)pyrazine-2-carboxamide] | 
19 | ≤ 0.01 | > 100 | CC1(C)Cc2c(-c3cccc(-c4cnc(N)c(C(=O)N[C@@H]5CNCCOC5)n4)c3)cnn2C1 (stereo in doubt) [Example 61, 3-amino-6-(3-(5,5-dimethyl-5,6-dihydro-4H-pyrrolo[1,2-b]pyrazol-3-yl)phenyl)-N-(1,4-oxazepan-6-yl)pyrazine-2-carboxamide] | 
20 | 0.01 to 0.1 | > 100 | CC1(C)Cc2c(-c3ccc(O)c(-c4cnc(N)c(C(=O)N[C@@H]5CNC[C@H]5O)n4)c3)cnn2C1 [Example 57, 3-amino-6-(5-(5,5-dimethyl-5,6-dihydro-4H-pyrrolo[1,2-b]pyrazol-3-yl)-2-hydroxyphenyl)-N-((3R,4R)-4-hydroxypyrrolidin-3-yl)pyrazine-2-carboxamide] | 
21 | ≤ 0.01 | > 100 | CC1(C)Cc2c(-c3cc(-c4cnc(N)c(C(=O)N[C@@H]5CNC[C@H]5O)n4)ccn3)cnn2C1 [Example 54, 3-amino-6-(2-(5,5-dimethyl-5,6-dihydro-4H-pyrrolo[1,2-b]pyrazol-3-yl)pyridin-4-yl)-N-((3R,4R)-4-hydroxypyrrolidin-3-yl)pyrazine-2-carboxamide] | 
22 | 0.01 to 0.1 | 10 to 100 | CC1(C)Cc2c(-c3cccc(-c4cnc(N)c(C(=O)N[C@H]5CNC[C@@H]5F)n4)c3)cnn2C1 [Example 62, 3-amino-6-(3-(5,5-dimethyl-5,6-dihydro-4H-pyrrolo[1,2-b]pyrazol-3-yl)phenyl)-N-((3S,4S)-4-fluoropyrrolidin-3-yl) pyrazine-2-carboxamide] | 
23 | ≤ 0.01 | 10 to 100 | CC1(C)Cc2c(-c3ccc(O)c(-c4cnc(N)c(C(=O)N[C@H]5CCC6(CC6)NC5)n4)c3)cnn2C1 [Example 56, (S)-3-amino-6-(5-(5,5-dimethyl-5,6-dihydro-4H-pyrrolo[1,2-b]pyrazol-3-yl)-2-hydroxyphenyl)-N-(4-azaspiro[2.5]octan-6-yl)pyrazine-2-carboxamide] | 
